From patent US20100029619A1, “FUSED HETEROCYCLIC COMPOUND” (TAKEDA PHARMACEUTICAL COMPANY LIMTED, priority 2006, published 2010) come the findings set out here.

`Cc1cccc2nc(NC(=O)c3ccc(C(C)(C)C)cc3)cn12` [Example 65, 4-tert-Butyl-N-(5-methylimidazo[1,2-a]pyridin-2-yl)benzamide] had a melting point of 204 to 205 °C.

In turn, `CN(C)Cc1ccc2nc(NC(=O)c3ccc(C(C)(C)C)cc3)cn2c1` [Example 80, 4-tert-butyl-N-[6-(dimethylaminomethyl)imidazo[1,2-a]pyridin-2-yl]benzamide] gave a melting point of 236 to 237 °C.

For the compound `CC(C)(CNC(=O)Cc1cnc[nH]1)c1ccc(C(=O)Nc2cn3cc(Cl)ccc3n2)cc1` [Example 451, N-(6-chloroimidazo[1,2-a]pyridin-2-yl)-4-{2-[(1H-imidazol-5-ylacetyl)amino]-1,1-dimethylethyl}benzamide], the melting point was 270 °C (dec.).

`CC(O)c1ccc2nc(NC(=O)c3ccc(C(C)(C)C)cc3)cn2c1` (stereo not drawn) [Example 71, 4-tert-butyl-N-[6-(1-hydroxyethyl)imidazo[1,2-a]pyridin-2-yl]benzamide] gave a melting point of 249 to 250 °C.

The compound `CC(C)(CCc1nnn[nH]1)c1ccc(C(=O)Nc2cn3cc(-n4ccnc4)ccc3n2)cc1` [Example 46, 4-[1,1-dimethyl-3-(1H-tetrazol-5-yl)propyl]-N-[6-(1H-imidazol-1-yl)imidazo[1,2-a]pyridin-2-yl]benzamide] gave a melting point of 266 to 267 °C.

In turn, `CC(C)(C)c1ccc(C(=O)Nc2cn3nc(-n4cnc(CO)c4)ccc3n2)cc1` [Example 145, 4-tert-butyl-N-{6-[4-(hydroxymethyl)-1H-imidazol-1-yl]imidazo[1,2-b]pyridazin-2-yl}benzamide] showed a melting point of 298 to 301 °C.

In the case of `CC(C)(C)c1ccc(C(=O)Nc2cn3nc(-n4cnc(Br)c4)ccc3n2)cc1` [Example 147, N-[6-(4-bromo-1H-imidazol-1-yl)imidazo[1,2-b]pyridazin-2-yl]-4-tert-butylbenzamide], the melting point is 306 to 307 °C.

For the compound `CN(C)c1ccc(C(=O)Nc2cn3cc(-n4ccnc4)ccc3n2)cc1` [Example 85, 4-dimethylamino-N-[6-(1H-imidazol-1-yl)imidazo[1,2-a]pyridin-2-yl]benzamide], the melting point is 247 to 248 °C.

In turn, `CC(C)c1ccc(C(=O)Nc2cn3cc(-n4ccnc4)ccc3n2)cc1` [Example 97, N-[6-(1H-imidazol-1-yl)imidazo[1,2-a]pyridin-2-yl]-4-isopropylbenzamide] displayed a melting point of 291 to 293 °C.

In turn, `CC(C)(CCC#N)c1ccc(C(=O)Nc2cn3cc(Cl)ccc3n2)cc1` [Example 32, N-(6-chloroimidazo[1,2-a]pyridin-2-yl)-4-(3-cyano-1,1-dimethylpropyl)benzamide] gave a melting point of 198 to 199 °C.

On to `CC(C)(CNC(=O)c1c[nH]cn1)c1ccc(C(=O)Nc2cn3cc(C(F)(F)F)ccc3n2)cc1` [Example 456, N-[2-methyl-2-(4-{[6-(trifluoromethyl)imidazo[1,2-a]pyridin-2-yl]carbamoyl}phenyl)propyl]-1H-imidazole-4(5)-carboxamide], for which the melting point lay in the range of 174 to 176 °C.

Turning to `CC(C)(C#N)c1ccc(C(=O)Nc2cn3cc(-n4ccnc4)ccc3n2)cc1` [Example 130, 4-(1-cyano-1-methylethyl)-N-[6-(1H-imidazol-1-yl)imidazo[1,2-a]pyridin-2-yl]benzamide], the melting point lay within 241 to 244 °C.

In turn, `CC(C)(C)c1ccc(C(=O)Nc2cn3nc(NC4CCNCC4)ccc3n2)cc1` [Example 171, 4-tert-butyl-N-[6-(piperidin-4-ylamino)imidazo[1,2-b]pyridazin-2-yl]benzamide] returned a melting point of 242 to 243 °C.

For the compound `CC(C)(CO)c1ccc(C(=O)Nc2cn3cc(-c4cn[nH]c4)ccc3n2)cc1` [Example 464, 4-(2-hydroxy-1,1-dimethylethyl)-N-[6-(1H-pyrazol-4-yl)imidazo[1,2-a]pyridin-2-yl]benzamide], the melting point lay within 293 to 296 °C.

On to `CC(C)(C)c1ccc(C(=O)Nc2cn3cc(-c4ccoc4)ccc3n2)cc1` [Example 61, 4-tert-butyl-N-[6-(3-furyl)imidazo[1,2-a]pyridin-2-yl]benzamide], for which the melting point lay in the range of 258 to 259 °C.
